From BindingDB's records for doi:10.7270/Q2DV1HGT (Burnham Center For Chemical Genomics, 2012)

Target: T1, Tyrosine-protein phosphatase non-receptor type 5 (Homo sapiens, UniProt P54829)
T1 sequence (P54829 whole entry): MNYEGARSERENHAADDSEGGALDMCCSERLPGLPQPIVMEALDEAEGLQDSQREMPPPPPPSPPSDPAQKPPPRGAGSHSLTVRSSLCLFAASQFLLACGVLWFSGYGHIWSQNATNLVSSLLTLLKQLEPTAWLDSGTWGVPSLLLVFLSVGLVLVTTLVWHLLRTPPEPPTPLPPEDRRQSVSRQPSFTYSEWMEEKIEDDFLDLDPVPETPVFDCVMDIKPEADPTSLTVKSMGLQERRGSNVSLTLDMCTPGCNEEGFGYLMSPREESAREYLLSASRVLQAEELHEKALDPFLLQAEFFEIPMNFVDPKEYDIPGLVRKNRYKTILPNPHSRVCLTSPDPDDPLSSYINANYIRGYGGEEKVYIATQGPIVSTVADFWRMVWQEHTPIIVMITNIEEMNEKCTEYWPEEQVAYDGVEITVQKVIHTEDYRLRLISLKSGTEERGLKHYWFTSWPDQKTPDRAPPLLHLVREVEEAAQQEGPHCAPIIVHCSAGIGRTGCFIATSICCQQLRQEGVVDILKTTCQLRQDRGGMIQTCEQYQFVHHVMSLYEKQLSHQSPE
Assay: STEP phosphatase inhibitors, confirmation, biochemical, fluorescence intensity, uHTS hits (AID 602372)

First: CCOc1cc(CN=Nc2nc(O)c(CC(=O)O)s2)ccc1OCc1ccc(Cl)cc1Cl [2-[2-[(N''E)-N''-[4-(2,4-dichlorobenzyl)oxy-3-ethoxy-benzylidene]hydrazino]-4-keto-2-thiazolin-5-yl]acetic acid]
Second: COc1ccc(CN=Nc2nc(O)c(CC(=O)O)s2)cc1OCc1ccc(Cl)cc1Cl [[2-({3-[(2,4-dichlorobenzyl)oxy]-4-methoxybenzylidene}hydrazono)-4-oxo-1,3-thiazolidin-5-yl]acetic acid]
The IC50 of the first is 2.4-fold lower: 4.09 µM for the first, 9.72 µM for the second. The first is the more potent here.

Going from `CSc1ccc(CN=Nc2ccc(S(=O)(=O)Nc3ccccc3C(=O)O)cc2[N+](=O)[O-])cc1` [MLS002245633] to `O=C(N/N=C/C1C=CC=CC1=O)c1cccc([N+](=O)[O-])c1` (stereo not given) [MLS002667988], the IC50 rises from 4.12 µM to 8.95 µM (2.2-fold). The first is the more potent here.

Compared with `S=C1N=C(C23CC4CC(CC(C4)C2)C3)CC(c2ccc3c(c2)OCO3)N1` (stereo not given), `S=C1N=C2C(=C3SCCS3)CCCC2C(c2ccccc2)N1` (stereo not given) [MLS000516376] is 2.5-fold lower in IC50: 56.8 µM for the first, 22.6 µM for the second.

Compared with `CCN(CC)P(=O)(NC(=O)C(Cl)(Cl)Cl)N(CC)CC` [MLS000564159], `O=C1C(=O)N(CCCO)C(c2ccc(Br)cc2)C1C(=O)c1ccc(Br)cc1` (stereo not given) [(4E)-5-(4-bromophenyl)-4-[(4-bromophenyl)-oxidanyl-methylidene]-1-(3-oxidanylpropyl)pyrrolidine-2,3-dione] is lower in IC50: > 80 µM for the first, 36.2 µM for the second.

First: C=c1c(O)c(O)c(=C2C(=O)C(=O)C(C)C(=O)C2=O)c(O)c1O (stereo not given) [(3E)-5-hydroxy-6-methyl-3-(2,3,5-trihydroxy-4-methyl-6-oxo-1-cyclohexa-2,4-dienylidene)cyclohex-5-ene-1,2,4-trione]
Second: COc1ccc(OC)c(-n2c(O)c3o[nH]c(-c4ccccc4Cl)c-3c2=O)c1 [SMR000046218]
The IC50 of the first is higher: > 80 µM for the first, 24.4 µM for the second.
